US8551937B2, “Peptide having an extending action for half-life of object peptide in plasma” (priority 2008, dated 2013)

Columns and labels:
[1] = Antigenicity by indirect ELISA of serum after repeated administration; assay type: in vivo; details: 0.25 mg/kg subcutaneous twice daily for 29 days, mouse serum
Description: In order to investigate whether an antibody to native CNP-22 or chimeric CNP (B) was produced using serum collected from the mice after completion of repeated administration for four weeks in Example 4, antigenicity of each of them was evaluated by means of an indirect ELISA. A peptide solution (100 μL) adjusted to 1.0 ng/μL using 50 mM of […] at pH 8.5 was added to a 96-well plate (manufactured by Nalge Nunc International; Denmark) treated with Maxisoap and subjected to a coating operation overnight at 4° C. A blocking was carried out at room temperature for 1 hour using a 2.0% Block Ace (manufactured by Snow Brand Milk). […] After washing the wells, an anti-mouse IgG HRPAb (manufactured by Zymed Laboratories, U.S.A.) was added thereto. The antigen-antibody reaction was conducted for 1 hour at room temperature, then the wells were washed and a substrate ABTS (manufactured by KPL, U.S.A.) was added thereto.

[2] = CNP immunoreactivity concentration in plasma after administration to rats (competitive RIA), pharmacokinetic parameters (Example 2); assay type: in vivo, rat; details: for half-life: read-out: T½
Description: Pharmacokinetic parameters were calculated from the resulting changes in immunoreactivity concentrations in plasma. At that time, WinNonlin Professional Ver. 4.0.1 (manufactured by Pharsight Corporation, U.S.A.) was used as the analytical software. Method for the calculation of each parameter is mentioned as follows.
Concentration at time 0 (C0; extrapolated value, ng/mL), area under the curve for concentration in plasma vs. time (AUC; ng.min/mL) and quenching half-life (T½; minute(s)) were calculated as follows. C0 was calculated as a value at time by means of extrapolation from the changes in immunoreactivity concentration in plasma at each blood collection period. AUC was calculated by a trapezoidal method using the immunoreactivity concentrations in plasma at all measuring points (t) and an extrapolated value until the infinitive time was determined. T½ was calculated by means of a least-squares method from the inclination of a straight line connecting several points in a disappearing phase of the immunoreactivity concentration in plasma. In the case of a subcutaneous administration, C0 was not determined but the maximum concentration in plasma (Cmax; ng/mL) and the time reaching the maximum concentration in plasma (Tmax; min) were determined.
Changes in CNP immunoreactivity concentration in plasma of native CNP-22 and chimeric peptide (chimeric CNP) where a half-life-extension peptide was added to CNP were investigated.
The experiment was conducted in the same manner as in Example 1 that rats where polyethylene tube was previously inserted into thigh artery were used under an anesthetizing condition with Nembutal and male SD strain rats of 7 weeks age (purchased from Nippon Charles River) were used where one group comprised 3 rats. […] At that time, a rabbit polyclonal antibody (#2) recognizing a ring part of native CNP-22 was used as an antibody and ^125I-[Tyr^0] CNP was used as a labeling compound. Pharmacokinetic analysis was carried out by the same method as in Example 1.

[3] = Comparison of half-life in plasma of native CNP-22, native CNP-53 and chimeric CNP (Example 12); details: male, SD, rat, in vivo, iv, 20 nmol/kg, T½ Mean Value, intravenous, male rats, N = 3
Description: Changes in CNP immunoreactivity concentration in plasma when the native CNP-22 shown by SEQ ID No: 101 was administered either solely or jointly with neutral endo-peptidase (NEP) inhibitor and compared with changes in CNP immunoreactivity concentration in plasma when native CNP-53 (SEQ ID No: 159) and the chimeric CNP (D) (structure mentioned already) were intravenously administered.
The experiment was conducted using rats where polyethylene tube (PE-50, manufactured by Clay Adams) was previously inserted into thigh artery under the anesthetized condition with Nembutal. In the group where the native CNP-22 was administered either solely or jointly with an NEP inhibitor, the polyethylene tube (PE-10, manufactured by Clay Adams) was also inserted into the thigh vein. As to a test system, male SD rats (Nippon Charles River) of 7 weeks age were used where one group comprised three rats. As to the NEP inhibitor, DL-Thiorphan (manufactured by Sigma) was used and, during the period from 10 minutes before the initiation of administration of the native CNP-22 until 60 minutes after the initiation of the administration where collection of the blood finished, 5% mannitol (100 μL/min/body) or NEP inhibitor (30 μg/100 μL/min/body) was subjected to a constant-speed intravenous administration for 70 minutes using an Infusion Pump (CFV 2100, manufactured by Nippon Koden K. K.). Native CNP-22, native CNP-53 or chimeric CNP (D) was administered into tail vein in a dose of 20 nmol/kg each and blood over the time from before administration and 60 minutes after administration was collected from a polyethylene tube inserted into the thigh artery. To the collected blood were added EDTA (Dojin Laboratories) and aprotinin (manufactured by Bayer) as a stabilizer and an anti-coagulant, respectively and the plasma was separated by means of centrifugal separation. CNP immunoreactivity concentration in the plasma was measured by a competitive radioimmunoassay (RIA). At that time, a rabbit polyclonal antibody (#2) which specifically recognizes a ring part structure which is the common structure for native CNP-22 and native CNP-53 was used as an antibody while, as a labeling compound, ^125I-[Tyr^0] CNP-22 was used.

[4] = CNP immunoreactivity concentration in plasma, half-life after intravenous administration (Example 9); details: male, SD, rat, in vivo, 20 nmol/kg
[5] = biological target: T1, human type recombinant neutral endopeptidase (hNEP) (Homo sapiens, UniProt P08473); experiment: Resistance to peptidase: stability to hNEP (HPLC residual rate); assay type: in vitro ADME; details: hNEP, 37° C., 1 hour, 0.5 μg/mL, 20 mM MES pH 6.5, mean of N = 2
T1 construct: purchased R&D Systems, Inc., U.S.A
Description: (§1) The experiment was conducted in N=2 for each sample. Native CNP-22, chimeric CNP (A, B) (structure mentioned already; final concentration: 0.5 μg/mL) and 100 μL of reaction solution (medium: 20 mM MES, pH 6.5) of human type recombinant neutral endopeptidase (hNEP, manufactured by R&D Systems, Inc., U.S.A.) were prepared. […] Distilled water (100 μL) was added to the sample after boiling followed by well mixing and 50 μL thereof was analyzed in a water-acetonitrile system using a high-performance liquid chromatography system LC-10A (manufactured by Shimadzu). The analytical data were analyzed by a Chromato-Pack (CRA-10A, manufactured by Shimadzu) and area of the peak zone of unchanged substance was calculated. The area of average zone of unchanged substance when made to react at 37° C. was divided by the area of average zone of the boiled sample to calculate the residual rate of the unchanged substance after 1 hour.

[6] = biological target: T2, neutral endopeptidase (NEP) (Homo sapiens, UniProt P08473); experiment: as above; assay type: in vitro ADME; details: human, isolated enzyme neprilysin; hNEP, 37° C., 1 hour, 0.5 μg/mL, 20 mM MES pH 6.5, mean of N = 2; read-out: Residual Rate
T2 construct: purchased R&D Systems, Inc., U.S.A
Description: as §1

[7] = rat, plasma, sc, subcutaneous, 0.1 mg/kg, male rats, N = 3, mean ± SD
[8] = rat, plasma, intravenous, 0.1 mg/kg, male rats, N = 3, mean ± SD

T1 sequence (P08473 whole entry): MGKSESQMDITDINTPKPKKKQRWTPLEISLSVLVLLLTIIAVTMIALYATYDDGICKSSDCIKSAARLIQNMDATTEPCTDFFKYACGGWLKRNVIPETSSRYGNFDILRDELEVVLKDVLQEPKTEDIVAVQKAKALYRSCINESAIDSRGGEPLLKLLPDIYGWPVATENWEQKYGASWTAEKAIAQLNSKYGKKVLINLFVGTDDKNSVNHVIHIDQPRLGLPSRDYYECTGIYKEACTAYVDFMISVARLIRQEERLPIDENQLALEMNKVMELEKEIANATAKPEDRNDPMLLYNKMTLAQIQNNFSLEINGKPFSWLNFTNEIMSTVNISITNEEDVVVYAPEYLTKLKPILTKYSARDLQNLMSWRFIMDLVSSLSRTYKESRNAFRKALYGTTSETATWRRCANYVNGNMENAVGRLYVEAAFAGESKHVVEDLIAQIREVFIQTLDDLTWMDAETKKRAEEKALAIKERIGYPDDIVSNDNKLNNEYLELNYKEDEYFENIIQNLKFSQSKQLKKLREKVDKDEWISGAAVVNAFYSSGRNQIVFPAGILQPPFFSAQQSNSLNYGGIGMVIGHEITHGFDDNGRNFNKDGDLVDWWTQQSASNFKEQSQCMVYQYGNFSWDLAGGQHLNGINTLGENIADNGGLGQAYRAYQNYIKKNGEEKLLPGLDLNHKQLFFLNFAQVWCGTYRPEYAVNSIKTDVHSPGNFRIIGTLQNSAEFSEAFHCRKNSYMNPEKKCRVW
T2 sequence (P08473 whole entry): as above

## CC[C@H](C)[C@@H]1NC(=O)[C@H](CCCNC(=N)N)NC(=O)[C@H](CC(=O)O)NC(=O)[C@H](CC(C)C)NC(=O)[C@H](CCCCN)NC(=O)[C@H](CC(C)C)NC(=O)CNC(=O)[C@H](Cc2ccccc2)NC(=O)[C@@H](NC(=O)CNC(=O)[C@H](CCCCN)NC(=O)[C@H](CO)NC(=O)[C@H](CC(C)C)NC(=O)CN)CSSC[C@@H](C(=O)O)NC(=O)CNC(=O)[C@H](CC(C)C)NC(=O)CNC(=O)[C@H](CO)NC(=O)[C@H](CCSC)NC(=O)[C@H](CO)NC(=O)CNC1=O [Native CNP-22]
[1]
  antibody value: no rise
[2]; [7]
  AUC(0-inf): 17.7 ng·h/mL
  Cmax: 55.6 ± 4.5 ng/mL
  Tmax: 5 min
  half-life: 7.8 ± 0.9 min
[2]; [8]
  AUC(0-inf): 25.6 ng·h/mL
  half-life: 2.93 ± 0.23 min
[2]; rat, plasma, intravenous, 0.1 mg/kg, male rats, N = 3, mean ± SD, extrapolated value
  C0: 1020 ± 273 ng/mL
[2]; subcutaneous, after 60 minutes from the administration
  CNP immunoreactivity concentration in plasma: almost disappeared
[3]; Joint Use with NEP Inhibitor: no
  half-life: 1.11 min
[3]; Joint Use with NEP Inhibitor: yes (DL-Thiorphan)
  half-life: 16.2 min
[4]
  half-life: 1.6 min
[5]
  Residual Rate: 16.7%
[6]
  remaining at 1 h, 0.5 μg/mL: 16.7%
